Assays:
[1] = system: ET-1-induced CTGF expression in WI-38 cells; test: ET-1-induced CTGF expression in WI-38 cells (Western blot); type: cell-based, human; details: WI-38 lung fibroblasts, 0.3, 1, 3 or 10 μM for 30 min before and during 2 h ET-1 (10 nM)
Procedure: (§1) FIGS. 2 (A) and (B) show the effect of L056 on ET-1-induced CTGF expression in WI-38 cells. WI-38 lung fibroblasts were incubated with different concentrations of L056 (0.3, 1, 3 or 10 μM) for 30 min before and during incubation for 2 h with ET-1 (10 nM). […] (A), Western blot plot; (B), Quantitative assay of Western blot. WI-38 cells, a normal human embryonic lung fibroblast cell line, were obtained from American Type Culture Collection (Manassas, VA). Cells were grown in MEM nutrient mixture, containing 10% FCS, 2 mM L-glutamine, 0.1 mM NEAA, 1 mM sodium pyruvate, 50 U/ml penicillin G, and 100 µg/ml streptomycin, in a humidified 37° C. incubator with 5% CO2 Cells were used between passages 18 and 30 for all experiments. After reaching confluence, cells were seeded onto 6-cm dishes for immunoblotting. Western blot analyses were performed as described previously (Chen B C, Chang Y S, Kang J C, Hsu M J, Sheu J R, Chen T L, et al. Peptidoglycan induces nuclear factor-kappaB activation and cyclooxygenase-2 expression via Ras, Raf-1, and ERK in RAW 264.7 macrophages. J Biol Chem 2004; 279:20889-97). Briefly, WI-38 lung fibroblasts were cultured in 6-cm dishes. […] The immunoreactivity was detected using enhanced chemiluminescence (ECL) following the manufacturer's instructions. Quantitative data were obtained using a computing densitometer with scientific imaging systems (Kodak, Rochester, NY). […]

[2] = system: thrombin-induced CTGF expression in WI-38 cells; test: thrombin-induced CTGF expression in WI-38 cells (Western blot); type: cell-based, human; details: WI-38 lung fibroblasts, 0.3, 1, 3 or 10 μM for 30 min before and during 2 h thrombin (1 U/ml)
Procedure: as §1, with “FIGS. 3” for “FIGS. 2”, “on thrombin-induced” for “on ET-1-induced”, “with thrombin (1 U/ml).” for “with ET-1 (10 nM).”, “279:20889-97).” for “279:20889-97). Briefly, WI-38 lung fibroblasts were cultured in 6-cm dishes.”

O=C(Nc1ccncc1)c1ccc(CNC2=C(Cl)C(=O)c3ccccc3C2=O)cc1 [Example L056, 4-(((3-chloro-1,4-dioxo-1,4-dihydronaphthalen-2-yl)amino)methyl)-N-(pyridin-4-yl)benzamide]
ET-1-induced CTGF production/expression [1]: significantly inhibited
ET-1-induced CTGF production/expression ([1]; listed as MPTOL0560): inhibited
thrombin-induced CTGF production/expression [2]: significantly inhibited
thrombin-induced CTGF production/expression ([2]; listed as MPTOL0560): inhibited

— patent US12453708B2, “Aminonaphthoquinone compounds for treatment and/or prevention of fibrosis diseases” (CALGENT BIOTECHNOLOGY CO., LTD., priority 2015, dated 2025)
